Assay results published in article PMC6271220, “Synthesis, Molecular Docking and Biological Evaluation of Glycyrrhizin Analogs as Anticancer Agents Targeting EGFR” (Molecules, 2014).

Experiments:
A549 (lung carcinoma) = test: CCK-8 anti-proliferative assay, A549; assay type: cell-based; conditions: Homo sapiens, CCK-8 assay, average of three independent experiments in triplicate
Protocol: (§1) CCK8 is much more convenient and helpful than MTT for analyzing cell proliferation, because it can be reduced to soluble formazan by dehydrogenase in mitochondria and has little toxicity to cells. Cell proliferation was determined using CCK8 dye (BeyotimeInst Biotech, Shanghai, China) according to manufacturer’s instructions. Briefly, 1–5 × 10^3 cells per well were seeded in a 96-well plate, grown at 37 °C for 12 h, Subsequently, cells were treated with compounds at increasing concentrations in the presence of 10% FBS for 24 or 48 h. After 10 µL CCK8 dye was added to each well, cells were incubated at 37 °C for 1–2 h and Plates were read in a Victor-V multilabel counter (Perkin-Elmer, Waltham, MA, USA) using the default europium detection protocol. Percent inhibition or IC50 values of compounds were calculated by comparison with DMSO-treated control wells.

[1] = test system: HeLa (cervix of uterus adenocarcinoma); test: CCK-8 anti-proliferative assay, HeLa; assay type: cell-based; conditions: Homo sapiens, CCK-8 assay, average of three independent experiments in triplicate
Protocol: as §1

EGFR = target: T1, EGFR (Homo sapiens, UniProt P00533); test: EGFR kinase autophosphorylation assay (DELFIA/time-resolved fluorometry); assay type: biochemical; conditions: in vitro EGFR enzyme inhibition
T1 construct: EGFR cytoplasmic domain (EGFR-CD, amino acids 645–1186); (His)6 (N); made in house; host or cells: Sf-9 insect cells (baculovirus)
T1 sequence (P00533 669-1210): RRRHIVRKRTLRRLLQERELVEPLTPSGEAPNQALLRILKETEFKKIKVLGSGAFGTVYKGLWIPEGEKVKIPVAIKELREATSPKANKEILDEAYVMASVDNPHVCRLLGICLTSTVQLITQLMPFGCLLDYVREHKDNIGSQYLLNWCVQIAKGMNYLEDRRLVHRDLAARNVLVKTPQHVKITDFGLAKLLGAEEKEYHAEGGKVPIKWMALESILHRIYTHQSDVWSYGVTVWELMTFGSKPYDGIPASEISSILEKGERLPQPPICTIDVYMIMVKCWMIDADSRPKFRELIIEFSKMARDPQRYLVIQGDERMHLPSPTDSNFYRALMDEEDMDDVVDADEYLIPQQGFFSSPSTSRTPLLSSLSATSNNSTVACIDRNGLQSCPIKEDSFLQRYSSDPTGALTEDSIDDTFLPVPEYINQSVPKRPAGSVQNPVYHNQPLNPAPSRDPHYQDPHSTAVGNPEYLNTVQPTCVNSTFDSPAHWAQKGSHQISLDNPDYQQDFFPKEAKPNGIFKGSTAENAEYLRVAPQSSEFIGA
Protocol: A sequence that encodes (His)6 was located at the 5′ upstream to the EGFR sequences. Sf-9 cells were infected for 3 days for protein expression. Sf-9 cell pellets were solubilized at 0 °C in a buffer at pH 7.4 containing 50 mM HEPES, 10 mM NaCl, 1% Triton, 10 µM ammonium molybdate, 100 µM sodium vanadate, 10 µg/mL aprotinin, 10 µg/mL leupeptin, 10 µg/mL pepstatin, and 16 µg/mL benzamidine HCl for 20 min followed by 20 min centrifugation. Crude extract supernatant was passed through an equilibrated Ni-NTA superflow packed column and washed with 10 mM and then 100 mM imidazole to remove nonspecifically bound material. Histidine tagged proteins were eluted with 250 and 500 mM imidazole and dialyzed against 50 mM NaCl, 20 mM HEPES, 10% glycerol, and 1 µg/mL each of aprotinin, leupeptin and pepstatin for 2 h. The entire purification procedure was performed at 4 °C or on ice.
EGFR kinase assays were set up to assess the level of autophosphorylation based on DELFIA/Time-Resolved Fluorometry. All compounds were dissolved in 100% DMSO and diluted to the appropriate concentrations with 25 mM HEPES at pH 7.4. In each well, 10 µL compound was incubated with 10 µL (5 ng for EGFR) recombinant enzyme (1:80 dilution in 100 mM HEPES) for 10 min at room temperature. Then, 10 µL of 5 mM buffer (containing 20 mM HEPES, 2 mM MnCl2, 100 µM Na3VO4 and 1 mM DTT) and 20 µL of 0.1 mM ATP–50 mM MgCl2 were added for 1 h. Positive and negative controls were included in each plate by incubation of enzyme with or without ATP–MgCl2. At the end of incubation, liquid was aspirated, and plates were washed three times with wash buffer. A 75 µL (400 ng) sample of europium labeled anti-phosphotyrosine antibody was added to each well for another 1 h of incubation. After washing, enhancement solution was added and the signal was detected by Victor (Wallac Inc., Gaithersburg, MD, USA) with excitation at 340 nm and emission at 615 nm. The percentage of auto-phosphorylation inhibition by the compounds was calculated using the following formula: 100% − [(negative control)/(positive control − negative control)]. The IC50 was obtained from curves of percentage inhibition with eight concentrations of compound.

[2] = test system: S180 (sarcoma tumer cell line); test: In vivo tumor xenograft model, S180 tumor-bearing mice; set-up: species or system Kunming mice; conditions: 60 mg/kg/day oral gavage, ten days; for Inhibition rate: from average tumor weights vs control
Protocol: (§2) Kunming mice (SPF, male or female, 20 ± 2 g) were purchased from the experimental animal center of China Pharmaceutical University. Animals were housed in a temperature (22 ± 2 °C) and relatively humidity (50%)-controlled room on a 12 h light/dark cycle, given free access to food and water, and acclimatized for at least one week prior to use. All the animal experiments were performed in accordance with the Regulations of the Experimental Animal Administration issued by the State Committee of Science and Technology of China.
(§3) Cell lines used for evaluation of the in vivo antitumor activity in this study included three tumor cell lines, namely S180 (sarcoma tumer cell line), HepG2 (liver carcinoma cell line), EAC (Ehrlich ascites carcinoma cell line). All of cell lines were purchased by the Shanghai Institutes for Biological Sciences, Chinese Academy of Sciences, and the cells were cultured in RPMI-1640 medium, which was supplemented with 10% heat-inactivated fetal bovine serum, 100 U/mL penicillin and 100 U/mL streptomycin and cultured in an atmosphere of 5% CO2 at 37 °C. Cells were collected for the experiments in the logarithmic growth phase.
(§4) To establish the tumor-bearing mouse model, the cell lines were harvested and inoculated subcutaneously into the right armpit region of the mice. On the 7th day, the tumor ascrites were obtained and washed with sterile PBS. Under sterile condition, the tumor ascrites were diluted with sterile nomal saline to 1 × 10^10 /L cell suspension. Tumor ascites were maintained in vivo in mice by transplantation of 0.2 mL of ascites (2 × 10^6 cells) from the infected mice to the non-infected mice.
(§5) Each Kunming mouse (male or female, weight 20 ± 2 g) were inoculated with seven-day-old ascrite (0.2 mL, 2 × 10^6 cells) subcutaneously into the right front armpit. 24 h after implantation of tumor cells, the mice were randomly divided into five test groups with 10 mice per group. Each mouse was weighed immediately after inoculation. The mice were treated by oral gavage with test samples (60 mg/kg/day) or normal saline (NS, 10 mL/kg) for ten days once daily. On day 11, the mice were sacrificed via cervical dislocation, and the mouse and tumor were excised and weighed for evaluating the tumor growth inhibition. The tumor inhibitory rate was calculated by the following formula: [drawing 5] (1) where Wcontrol and Wtreated were the average tumor weights of the control and treated mice, respectively. […] The effect of glycyrrhizin analogs on percentage increases in life span was calculated on the basis of mortality of the experimental mice: […]

[3] = test system: HepG2 (hepatocellular carcinoma); test: CCK-8 anti-proliferative assay, HepG2; assay type: cell-based; conditions: Homo sapiens, CCK-8 assay, average of three independent experiments in triplicate
Protocol: as §1

[4] = test system: HepG2 (liver carcinoma cell line); test: In vivo tumor xenograft model, HepG2 tumor-bearing mice; set-up: species or system Kunming mice; conditions: 60 mg/kg/day oral gavage, ten days; for Inhibition rate: from average tumor weights vs control
Protocol: as §2, §3, §4, §5

[5] = test system: EAC (Ehrlich ascites carcinoma cell line); test: Survival of EAC tumor-bearing mice; assay type: in vivo, Kunming mice; conditions: for Survival time: control 16.40 ± 2.07 d; for Survival rate: percentage increase in life span vs control
Protocol: as §2, §3, §4, §5

Structure (SMILES)	IC50 (A549 (lung carcinoma)) [µM]	IC50 [1] [µM]	IC50 (EGFR) [nM]	Body weight End [2] [g]	Tumor weight [2] [g]	Inhibition rate [2] [%]	IC50 [3] [µM]	Body weight End [4] [g]	Tumor weight [4] [g]	Inhibition rate [4] [%]	Survival time [5] [days]	Survival rate [5] [%]
CC1(C(=O)O)CCC2(C)CCC3(C)C(=CC(=O)C4C5(C)CCC(OC6OC(C(=O)O)C(O)C(O)C6OC6OC(C(=O)O)C(O)C(O)C6O)C(C)(C)C5CCC43C)C2C1 (stereo not drawn) [18α-GA, 18α-Glycyrrhizin]	41.6	15.1	81	25.20 ± 1.11	1.29 ± 0.47	32.5	54.2	26.08 ± 1.26	1.22 ± 0.46	37.4	19.75 ± 3.08	20.4
CC1(C)[C@@H](O[C@@H]2O[C@H](C(=O)O)[C@@H](O)[C@H](O)[C@H]2O)CC[C@]2(C)[C@H]3C(=O)C=C4[C@H]5C[C@@](C)(C(=O)O)CC[C@]5(C)CC[C@@]4(C)[C@]3(C)CC[C@@H]12 [18α-GAMG]	15.8	7.43	28	25.25 ± 1.80	1.15 ± 0.50	39.8	6.67	27.02 ± 2.10	0.98 ± 0.43	49.7	23.85 ± 5.41	45.4
CC1(C)[C@@H](O[C@H]2O[C@H](C(=O)O)[C@@H](O)[C@H](O)[C@H]2O[C@@H]2O[C@H](C(=O)O)[C@@H](O)[C@H](O)[C@H]2O)CC[C@]2(C)[C@H]3C(=O)C=C4[C@@H]5C[C@@](C)(C(=O)O)CC[C@]5(C)CC[C@@]4(C)[C@]3(C)CC[C@@H]12 [18β-GA, Glycyrrhizin]	51.9	18.9	92	24.48 ± 2.37	1.33 ± 0.67	30.4	63.6	26.94 ± 2.05	1.26 ± 0.65	35.4	19.40 ± 3.77	18.3
CC1(C)[C@@H](O[C@@H]2O[C@H](C(=O)O)[C@@H](O)[C@H](O)[C@H]2O)CC[C@]2(C)[C@H]3C(=O)C=C4[C@@H]5C[C@@](C)(C(=O)O)CC[C@]5(C)CC[C@@]4(C)[C@]3(C)CC[C@@H]12 [18β-GAMG, glycyrrhetic acid 3-O-mono-β-D-glucuronide]	21.6	8.39	69	25.02 ± 2.58	1.25 ± 0.19	34.6	33.6	27.8 ± 1.57	1.20 ± 0.35	38.4	21.05 ± 4.65	28.4
C#Cc1cccc(Nc2ncnc3cc(OCCOC)c(OCCOC)cc23)c1 [Erlotinib, reference compound]	0.13	0.2	–	–	–	–	0.12	–	–	–	–	–
